Measured values reported in patent US9655869B2, “Estrogen antagonists as treatments for sclerosing disorders” (University of Pittsburgh—Of The Commonwealth System Of …, priority 2009, dated 2017).

Experiments:
SSc = details: references (25), (57); cited from earlier work
fibronectin (FN) = experiment: FN mRNA (RT-PCR) and protein (western blot) expression in primary skin fibroblasts; assay type: cell-based, human; details: for FN protein levels in the ECM: primary fibroblasts treated 48 hrs, PPT 100 nM, genistein 100 nM, western blot; for E2-mediated increase of FN protein: skin fibroblasts pre-treated with inhibitor 1 hr prior to E2, western blot 48 hrs post-treatment, cellular lysates
Procedure: Skin-punch biopsies (6 mm) were obtained with informed consent from the clinically affected and unaffected skin of 6 patients with SSc and 5 healthy twins. All SSc patients had diffuse skin involvement and met the American College of Rheumatology criteria for the diagnosis of SSc (1). Biopsies were performed on the leading edge of dermal thickening and clinically normal skin. The skin samples were minced, placed in 60-mm tissue culture dishes and cultured at 37° C. in a humidified atmosphere in Dulbecco's modified Eagle's medium (DMEM) (Cellgro, Herndon, Va.) supplemented with 10% fetal bovine serum (FBS; Sigma-Aldrich, St. Louis, Mo.), 100 IU/ml penicillin, and 100 μg/ml streptomycin (Invitrogen, Carlsbad, Calif.). Skin fibroblasts (2×10^5 cells per well) were seeded in 35 mm cell culture dishes in DMEM/10% FBS. The following day, the medium was replaced with phenol-red free DMEM (Cellgro) without serum for 24 hours to deprive the cells of estrogen. […] Sigma-Aldrich) for 24 hours (for RNA extraction) or 48 hours (for protein extraction). TGF-β (10 ng/ml; R&D systems, Minneapolis, Minn.) was used as a positive control. […] Cell Signaling Technology, Beverly, Mass.) were added where indicated. To determine the role of ERα and β on FN individually, cells we cultured with propyl-pyrazole-triol (PPT), an ERα specific ligand (100 nM; Tocris), and genistein, an ERβ specific ligand (100 nM; […] Extracellular matrix (ECM) was extracted as we have previously described. (35) Briefly, cells were rinsed with PBS and incubated with 8M Urea in PBS for 20 mins. Cells were aspirated and the ECM was rinsed three times with PBS. ECM was scraped in 100 μl sample buffer (20 mM dithiothreitol, 6% SDS, 0.25 M Tris, pH 6.8, 10% glycerol, 10 mM NaF and bromophenyl blue) and analyzed by western blot. Skin fibroblasts in early passage (passages 3-4) were harvested and RNA was extracted using TRIzol (Invitrogen). mRNA was reverse transcribed using Superscript II (Invitrogen) following the manufacturer's recommendations. The cDNA generated was used as a template for amplification by PCR with primers specific for ERα [NT] ID NO:1) and […] NO:2), ERβ […] NO:3) and [NT] ID NO:4), Fibronectin, [NT] ID NO:5) and 5-[…] ID NO:6) and β-actin, […] NO:7) and [NT] ID NO:8). PCR amplification was performed in a 50 μl reaction containing 10 units of the reverse transcription reaction, Taq DNA polymerase (Invitrogen), 10×PCR buffer (750 mM Tris-HCl, pH8.8, 200 mM (NH4)2SO4 and 0.1% Tween 20), 1.5 mM MgSO4, 1 mM of each deoxynucleotide triphosphate in a Peltier Thermal Cycler-200 (MJ Research, Waltham, Mass.). Conditions were an initial denaturation at 95° C. for 4 min, followed by 35 cycles of 94° C. for 45 sec, 55° C. for 30 sec, and 68° C. for 2 min. Final extension was at 68° C. for 5 min. 20 μl of each reaction was electrophoresed on a 1% agarose gel in 1×TAE (Tris/acetate/EDTA) buffer and products were visualized following staining with ethidium bromide. Molecular weight of each PCR product: ERα 1062 bp, ERβ 934 bp, FN 513 bp and β-actin 494 bp. Cells were grown to confluency in 35 mm culture dishes. Cells were rinsed with 1×PBS and scraped in sample buffer (20 mM dithiothreitol, 6% SDS, 0.25 M Tris, pH 6.8, 10% glycerol, 10 mM NaF and bromophenyl blue). Samples were separated by electrophoresis on 8% SDS-polacrylamide gels (National Diagnostic, Atlanta, Ga.) and transferred to nitrocellulose membranes. […] Immunoreactive proteins were detected by chemiluminescence (PerkinElmer Life Sciences, Boston, Mass.), followed by autoradiography.

ERα = ERα protein in cellular lysates of skin fibroblasts (western blot); assay type: cell-based, human; details: for E2-induced increase of ERα: skin fibroblasts pre-treated with inhibitor 1 hr prior to E2, 48 hrs
Procedure: Skin fibroblasts (2×10^5 cells per well) were seeded in 35 mm cell culture dishes in DMEM/10% FBS. The following day, the medium was replaced with phenol-red free DMEM (Cellgro) without serum for 24 hours to deprive the cells of estrogen. Fresh phenol-red free DMEM plus 10% charcoal stripped fetal bovine serum (Hyclone, Logan, Utah) was added with one of the following: ethanol as vehicle control (0.1%) or E2 (10 nM; Sigma-Aldrich) for 24 hours (for RNA extraction) or 48 hours (for protein extraction).
Cells were grown to confluency in 35 mm culture dishes. Cells were rinsed with 1×PBS and scraped in sample buffer (20 mM dithiothreitol, 6% SDS, 0.25 M Tris, pH 6.8, 10% glycerol, 10 mM NaF and bromophenyl blue). Samples were separated by electrophoresis on 8% SDS-polacrylamide gels (National Diagnostic, Atlanta, Ga.) and transferred to nitrocellulose membranes. Membranes were blocked with 5% non-fat milk in 1×TBS-Tween20 (0.2 M Tris, 0.14 M NaCl, 0.1% Tween 20), followed by incubation with mouse monoclonal anti-human EDA-fibronectin antibody, rabbit polyclonal anti-human fibronectin antibody, rabbit polyclonal anti-ERα antibody, rabbit polyclonal anti-ERβ antibody (Santa Cruz Biotechnology, Santa Cruz, Calif.), mouse monoclonal anti-human vitronectin, mouse monoclonal anti-β-actin (Sigma-Aldrich), or mouse monoclonal anti-GAPDH (Ambion, Austin, Tex.) in 1×TBS-Tween20 followed by horseradish peroxide-conjugated donkey anti-rabbit IgG (Amersham, Piscataway, N.J.) or donkey anti-mouse IgG (Amersham). Immunoreactive proteins were detected by chemiluminescence (PerkinElmer Life Sciences, Boston, Mass.), followed by autoradiography.
We also examined the effect of the chemical inhibitors on ERα and ERβ.

human skin = experiment: ex vivo human skin organ culture: dermal and collagen bundle thickness; details: explanted human skin, 7 days; for collagen bundle thickness, ratio compared with vehicle / dermal thickness, ratio compared with vehicle: p<0.05, 3 experiments
Procedure: Dermal and collagen bundle thickness were measured in skin sections stained with hematoxylin and eosin.
Dermal thickness was defined as the distance from the granular layer to the junction between the dermis and subcutaneous fat. Images were taken on a Nikon Eclipse 800 microscope (Nikon Instruments, Inc., Huntley, Ill.) using identical camera settings and Image was used to measure thickness. Thickness was measured in 5 random fields in each sample.
(§1) To further examine the effect of estradiol in skin tissues, dermal and collagen bundle thickness in dermis were assessed using an ex vivo organ culture system. Ex-planted skin tissues on 35-mm well plates were treated with estradiol, estrogen receptor alpha or beta agonists (PPT, genistein, respectively) or vehicles (ethanol for estraditol, PPT, DMSO for genistein, respectively) for 7 days, and skin sections were stained with hematoxylin and eosin. […] We also assessed the extent of deposition of fibronectin using immunohistochemistry. […] Thus, estradiol is an important factor for the induction of skin fibrosis, and the effect of estradiol is mediated by estrogen receptor alpha.

fibronectin = experiment: ex vivo human skin organ culture: fibronectin immunohistochemistry; details: explanted human skin, 7 days; anti-fibronectin antibody, AEC
Procedure: 6 μm sections of paraffin-embedded skin tissues were de-paraffinized, endogenous peroxidase was quenched using 10% H2O2, and endogenous biotin was blocked using the biotin blocking kit (Dakocytomation, Carpinteria, Calif.). Sections were blocked with 5% serum and incubated with anti-fibronectin antibody followed by secondary antibody. Bound secondary antibody was detected using the AEC Red kit. A light hematoxylin counterstain was used to identify nuclei. Images were taken on a Nikon Eclipse 800 microscope.
as §1

MCF7 = details: reference (56); read-out: 1050 in the MCF7 proliferation assay; cited from earlier work
[1] = serum half life; cited from earlier work

For `CC(=O)Oc1ccc(C(=C2CCCCC2)c2ccc(OC(C)=O)cc2)cc1` [Cyclofenil], the “SSc symptoms / treatment outcome in SSc patients” value (SSc) is given as “disappointing results”.

In the case of `C[C@]12CC[C@@H]3c4ccc(O)cc4CC[C@H]3[C@@H]1CC[C@@H]2O` [E2, 17-β-Estradiol], the “FN mRNA and protein levels” value (fibronectin (FN); healthy twin and SSc fibroblasts, E2 10 nM, 24 hrs (mRNA), 48 hrs (protein)) is reported as “increased”, the “FN protein levels in the ECM” value (fibronectin (FN); E2 10 nM) is reported as “increased” and the ERα level (ERα; skin fibroblasts stimulated with E2 48 hrs) is reported as “increased”. For the same compound, the “collagen bundle thickness, ratio compared with vehicle” value (human skin) was 2.62 ± 0.18 arbitrary unit, the “dermal thickness, ratio compared with vehicle” value (human skin) was 1.61±0.12 arbitrary unit and the “fibronectin expression ex vivo (immunohistochemistry)” value (fibronectin) was “induce fibronectin expression”.

For `C[C@]12CC[C@@H]3c4ccc(O)cc4C[C@@H](CCCCCCCCC[S+]([O-])CCCC(F)(F)C(F)(F)F)[C@H]3[C@@H]1CC[C@@H]2O` (stereo partly drawn) [ICI 182,780, fulvestrant], the “TGF-β-induced FN levels” value (fibronectin (FN); TGF-β 10 ng/ml, ICI 182,780 100 nM) was “did not affect”, the “effect of E2 on FN mRNA and protein expression in presence of antagonist” value (fibronectin (FN); normal skin fibroblasts, E2 10 nM 48 hrs, ICI 182,780 100 nM, ECM and supernatants) was “blocked the effect of E2” and the “effect of estradiol on dermal and collagen bundle thickness in presence of antagonist” value (human skin; E2+ICI) was “blocked the effect of estradiol”. The IC50 (MCF7) was roughly 14 nM and the half life [1] was “approximately forty”.

With `N#CC(=C(/N)Sc1ccccc1N)/C(C#N)=C(\N)Sc1ccccc1N` [MEK inhibitor, U0126] the “E2-mediated increase of FN protein” value (fibronectin (FN)) was “more modest effect” and the “E2-induced increase of ERα” value (ERα) was “blocked”.

In the case of `CCCc1c(-c2ccc(O)cc2)nn(-c2ccc(O)cc2)c1-c1ccc(O)cc1` [PPT, propyl-pyrazole-triol], the “collagen bundle thickness, ratio compared with vehicle” value (human skin) is reported as 1.84 ± 0.15 arbitrary unit and the “dermal thickness, ratio compared with vehicle” value (human skin) is reported as 1.54±0.05 arbitrary unit.

In the case of `CC/C(=C(\c1ccccc1)c1ccc(OCCN(C)C)cc1)c1ccccc1` [Tamoxifen, tamoxifen], the “SSc symptoms / treatment outcome in SSc patients” value (SSc) is given as “did not improve SSc symptoms”.

With `O=c1c(-c2ccc(O)cc2)coc2cc(O)cc(O)c12` [genistein] the “FN protein levels in the ECM” value (fibronectin (FN); E2 10 nM) was “modestly increased” and the “thickening of dermis and collagen bundles” value (human skin; vs DMSO vehicle) was “did not induce thickening”.

In the case of `Oc1ccc(-c2nc(-c3ccncc3)c(-c3ccc(F)cc3)[nH]2)cc1` [p38 MAPK inhibitor, SB202190], the “E2-mediated increase of FN protein” value (fibronectin (FN)) is reported as “attenuated” and the “E2-induced increase of ERα” value (ERα) is reported as “blocked”.
